In assay [1] the target is T1, human ERα (Homo sapiens, UniProt P03372).
T1 sequence (P03372 1-595): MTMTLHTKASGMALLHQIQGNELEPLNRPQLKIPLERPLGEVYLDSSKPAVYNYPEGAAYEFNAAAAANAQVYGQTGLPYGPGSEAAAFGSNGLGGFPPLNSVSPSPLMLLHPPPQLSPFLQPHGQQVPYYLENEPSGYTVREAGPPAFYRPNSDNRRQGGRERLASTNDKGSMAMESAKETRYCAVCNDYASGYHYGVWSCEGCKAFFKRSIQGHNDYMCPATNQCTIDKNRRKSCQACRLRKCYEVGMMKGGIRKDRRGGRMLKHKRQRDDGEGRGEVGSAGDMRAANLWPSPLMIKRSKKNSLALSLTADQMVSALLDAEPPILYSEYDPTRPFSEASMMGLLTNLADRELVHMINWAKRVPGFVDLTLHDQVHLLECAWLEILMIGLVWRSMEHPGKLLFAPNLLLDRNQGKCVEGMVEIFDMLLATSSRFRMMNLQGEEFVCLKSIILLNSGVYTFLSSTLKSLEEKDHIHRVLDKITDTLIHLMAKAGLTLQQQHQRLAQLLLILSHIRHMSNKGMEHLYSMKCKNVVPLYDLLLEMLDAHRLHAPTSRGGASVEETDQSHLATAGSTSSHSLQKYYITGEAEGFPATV
The assay is described as follows: Creatine kinase expression (ER/CK) in Ad5-wt-hERα infected HAECT-1 cells. To be noted: for ER/CK % E2: efficacy relative to the maximal stimulation observed with E2.

Assay [2] deals with T1, human ERα. The assay is described as follows: NF-κB luciferase reporter (ER/NF-KB-luc) in Ad5-wt-hERα infected HAECT-1 cells. To be noted: for IC50: ER/NF-KB-luc IC50, Ad5-wt-ER infected HAECT-1 cells, IL-1β. In general terms: In a reporter assay the amount or activity of a reporter protein is the signal.
Setting [3] is: HAECT1, read-out: ER/NF-KB-luc % E2, efficacy relative to the maximal inhibition observed with E2.

Where two headings read alike, the source gives them in different places.

With “4-[1-isopropyl-7-(2-methylphenyl)-1H-indazol-3-yl]-3-methyl-phenol [Example 256]”, the EC50 in assay [1] (read-out: ER/CK EC50, Ad5-wt-ER infected HAECT-1 cells) is 292 nM.

On to `Cc1cccc(-n2nc(-c3ccc(O)cc3O)c3ccc(O)cc32)c1` [Example 23, 4-[6-hydroxy-1-(3-methylphenyl)-1H-indazol-3-yl]benzene-1,3-diol], for which, in assay [1], the EC50 stood at 72 nM and the “ER/CK % E2” value is recorded as 55 % E2. Besides, in assay [2], it took 239 nM to reach half-maximal inhibition (IC50). In addition, the Emax in assay [2] (setting [3]) was 76%.

Regarding `Oc1ccc(-c2nn(C3CCCCC3)c3c(F)cccc23)cc1` [Example 33, 4-(1-cyclohexyl-7-fluoro-1H-indazol-3-yl)phenol], in assay [1], the EC50 was 51 nM and the “ER/CK % E2” value was 34 % E2. For the same compound, the IC50 (commonly the concentration that gives 50% inhibition) in assay [2] came to 37 nM. Further, the Emax in assay [2] (setting [3]) was 92%.

`CCNC(=O)Oc1ccc(-c2nn(C3CCCC3)c3c(F)cccc23)cc1` [Example 118, 4-(1-cyclopentyl-7-fluoro-1H-indazol-3-yl)phenyl ethylcarbamate]: the IC50 in assay [2] was determined as 418 nM. The Emax in assay [2] (HAECT1, read-out: ER/NF-KB-luc % E2) stood at 66%.

For `CCCn1nc(-c2ccc(OC(=O)CC(C)(C)C)cc2)c2cccc(Cl)c21` [Example 122, 4-(7-chloro-1-propyl-1H-indazol-3-yl)phenyl 3,3-dimethylbutanoate], the IC50 in assay [2] was found to be 350 nM. In addition, the Emax in assay [2] (setting [3]) was 78%.

In the case of `CCCn1nc(-c2ccc(OC(=O)CC)cc2)c2cccc(Cl)c21` [Example 123, 4-(7-chloro-1-propyl-1H-indazol-3-yl)phenyl propionate], half-maximal inhibition in assay [2] (IC50) was put at 328 nM. In addition, the Emax in assay [2] (setting [3]) worked out at 71%.

`Cn1nc(-c2ccc(O)cc2)c2cc(F)c(Cl)cc21` [Example 125, 4-(6-chloro-5-fluoro-1-methyl-1H-indazol-3-yl)phenol] returned an IC50 in assay [2] of 479 nM. Moreover, the Emax in assay [2] (setting [3]) turned out to be 128%.

For `Oc1ccc(-c2nn(Cc3ccccc3)c3c(C(F)(F)F)cccc23)c(O)c1` [Example 143, 4-[1-benzyl-7-(trifluoromethyl)-1H-indazol-3-yl]benzene-1,3-diol], the IC50 in assay [2] is 310 nM. For the same compound, the Emax in assay [2] (setting [3]) came to 65%.

With `Oc1ccc(-c2nn(Cc3ccccc3)c3c(C(F)(F)F)cccc23)cc1` [Example 147, 4-[1-benzyl-7-(trifluoromethyl)-1H-indazol-3-yl]phenol], the Emax in assay [2] (setting [3]) was found to be 65%.

`Oc1ccc(-c2nn(Cc3ccccc3)c3c(F)cccc23)c(O)c1` [Example 151, 4-(1-benzyl-7-fluoro-1H-indazol-3-yl)benzene-1,3-diol]: in assay [2], the midpoint of inhibition, the IC50, lay at 1060 nM. Also, the Emax in assay [2] (setting [3]) turned out to be 81%.

For the compound `OCCn1nc(-c2ccc(O)cc2)c2cccc(C(F)(F)F)c21` [Example 162, 4-[1-(2-hydroxyethyl)-7-(trifluoromethyl)-1H-indazol-3-yl]phenol], in assay [2] (setting [3]), the Emax stood at 84%.

In the case of `CCCCn1nc(-c2ccc(O)cc2)c2cccc(C(F)(F)F)c21` [Example 219, 4-[1-butyl-7-(trifluoromethyl)-1H-indazol-3-yl]phenol], the IC50 in assay [2] stood at 369 nM. Moreover, in assay [2] (setting [3]), the Emax was 104%.

In the case of `CSc1ccc(-c2cccc3c(-c4ccc(O)cc4)nn(C(C)C)c23)cc1` [Example 228, 4-{1-isopropyl-7-[4-(methylthio)phenyl]-1H-indazol-3-yl}phenol], in assay [2], the midpoint of inhibition, the IC50, lay at 75 nM. The Emax in assay [2] (setting [3]) came out at 83%.

Consider `CC(C)n1nc(-c2ccc(O)cc2)c2cccc(-c3ccc(CO)cc3)c21` [Example 230, 4-{7-[4-(hydroxymethyl)phenyl]-1-isopropyl-1H-indazol-3-yl}-phenol], for which, in assay [2], the midpoint of inhibition, the IC50, lay at 367 nM. For the same compound, the Emax in assay [2] (setting [3]) was determined as 82%.

The compound `CCc1ccc(-c2cccc3c(-c4ccc(O)cc4)nn(C(C)C)c23)cc1` [Example 232, 4-[7-(4-ethylphenyl)-1-isopropyl-1H-indazol-3-yl]phenol] gave an IC50 in assay [2] of 143 nM. For the same compound, in assay [2] (setting [3]), the Emax was determined as 75%.

Take `CC(C)n1nc(-c2ccc(O)cc2)c2cccc(-c3ccc(-c4ccccc4)cc3)c21` [Example 233, 4-[7-(1,1′-biphenyl-4-yl)-1-isopropyl-1H-indazol-3-yl]phenol]: the IC50 in assay [2] was found to be 87 nM. For the same compound, in assay [2] (setting [3]), the Emax was found to be 81%.

In turn, `CC(C)n1nc(-c2ccc(O)cc2)c2cccc(-c3ccccc3Cl)c21` [Example 234, 4-[7-(2-chlorophenyl)-1-isopropyl-1H-indazol-3-yl]phenol] showed an IC50 in assay [2] of 34 nM. Moreover, the Emax in assay [2] (setting [3]) was 72%.

`Oc1ccc(-c2nn(C3CCCC3)c3c(-c4ccc(C(F)(F)F)cc4)cccc23)cc1` [Example 237, 4-{1-cyclopentyl-7-[4-(trifluoromethyl)phenyl]-1H-indazol-3-yl}-phenol]: the IC50 in assay [2] turned out to be 480 nM. For the same compound, the Emax in assay [2] (setting [3]) came out at 79%.

`Oc1ccc(-c2nn(C3CCCC3)c3c(-c4cccs4)cccc23)cc1` [Example 238, 4-(1-cyclopentyl-7-thien-2-yl-1H-indazol-3-yl)phenol]: the IC50 in assay [2] stood at 11 nM. Moreover, the Emax in assay [2] (setting [3]) is 74%.

As to `CCc1ccc(-c2cccc3c(-c4ccc(O)cc4)nn(C4CCCC4)c23)cc1` [Example 241, 4-[1-cyclopentyl-7-(4-ethylphenyl)-1H-indazol-3-yl]phenol], inhibition in assay [2] was half-maximal at 32 nM (IC50). For the same compound, the Emax in assay [2] (setting [3]) is 60%.

`Oc1ccc(-c2nn(C3CCCC3)c3c(-c4ccccc4Cl)cccc23)cc1` [Example 243, 4-[7-(2-chlorophenyl)-1-cyclopentyl-1H-indazol-3-yl]phenol]: the 50% inhibitory concentration (IC50) in assay [2] is 142 nM. Further, the Emax in assay [2] (setting [3]) came out at 83%.

In assay [2], `Cc1ccccc1-c1cccc2c(-c3ccc(O)cc3)nn(C3CCCC3)c12` [Example 245, 4-[1-cyclopentyl-7-(2-methylphenyl)-1H-indazol-3-yl]phenol] registered an IC50 of 16 nM. Also, the Emax in assay [2] (setting [3]) came to 70%.

The compound `CCCCC/C=C/c1cccc2c(-c3ccc(O)cc3C)nn(C(C)C)c12` [Example 248, 4-{7-[(E)-hept-1-enyl]-1-isopropyl-1H-indazol-3-yl}-3-methyl-phenol] returned an IC50 in assay [2] of 481 nM. In addition, the Emax in assay [2] (setting [3]) is 73%.

For `Cc1cc(O)ccc1-c1nn(C(C)C)c2c(-c3ccc(CO)cc3)cccc12` [Example 249, 4-{7-[14-(hydroxymethyl)phenyl]-1-isopropyl-1H-indazol-3-yl}-3-methylphenol], 59 nM corresponded to half-maximal inhibition in assay [2] (IC50). For the same compound, in assay [2] (setting [3]), the Emax worked out at 59%.

As for `Cc1cc(O)ccc1-c1nn(C(C)C)c2c(-c3ccc(O)c(O)c3)cccc12` [Example 250, 4-[3-(4-hydroxy-2-methylphenyl)-1-isopropyl-1H-indazol-7-yl]-benzene-1,2-diol], the Emax in assay [2] (setting [3]) was 80%.

In assay [2], `CCc1ccc(-c2cccc3c(-c4ccc(O)cc4C)nn(C(C)C)c23)cc1` [Example 251, 4-[7-(4-ethylphenyl)-1-isopropyl-1H-indazol-3-yl]-3-methylphenol] had an IC50 of 24 nM. Moreover, the Emax in assay [2] (setting [3]) was found to be 57%.

The compound `Cc1cc(O)ccc1-c1nn(C(C)C)c2c(-c3ccc(-c4ccccc4)cc3)cccc12` [Example 252, 4-[7-(1,1′-biphenyl-4-yl)-1-isopropyl-1H-indazol-3-yl]-3-methyl-phenol] gave an IC50 in assay [2] of 56 nM. Moreover, the Emax in assay [2] (setting [3]) stood at 59%.

As for `Cc1cc(O)ccc1-c1nn(C(C)C)c2c(-c3ccccc3Cl)cccc12` [Example 253, 4-[7-(2-chlorophenyl)-1-isopropyl-1H-indazol-3-yl]-3-methyl-phenol], half-maximal inhibition in assay [2] (IC50) was put at 21 nM. Further, in assay [2] (setting [3]), the Emax worked out at 62%.

Turning to `Cc1cc(O)ccc1-c1nn(C(C)C)c2c(-c3ccco3)cccc12` [Example 254, 4-[7-(2-furyl)-1-isopropyl-1H-indazol-3-yl]-3-methylphenol], in assay [2], the IC50 is 27 nM. Also, the Emax in assay [2] (setting [3]) was determined as 56%.

Consider `Cc1cc(O)ccc1-c1nn(C(C)C)c2c(-c3ccccc3C)cccc12` [Example 255, 4-[1-isopropyl-7-(2-methylphenyl)-1H-indazol-3-yl]-3-methyl-phenol], for which the IC50 in assay [2] stood at 4 nM. In addition, in assay [2] (setting [3]), the Emax was 89%.

In the case of `CCCCC/C=C/c1cccc2c(-c3ccc(O)cc3C)nn(C3CCCC3)c12` [Example 258, 4-{1-cyclopentyl-7-[(E)-hept-1-enyl]-1H-indazol-3-yl}-3-methyl-phenol], the IC50 in assay [2] was determined as 644 nM. The Emax in assay [2] (setting [3]) amounted to 77%.

For `CCc1ccc(-c2cccc3c(-c4ccc(O)cc4C)nn(C4CCCC4)c23)cc1` [Example 260, 4-[1-cyclopentyl-7-(4-ethylphenyl)-1H-indazol-3-yl]-3-methyl-phenol], the 50% inhibitory concentration (IC50) in assay [2] was 28 nM. For the same compound, in assay [2] (setting [3]), the Emax is 53%.

In the case of `Cc1cc(O)ccc1-c1nn(C2CCCC2)c2c(-c3ccc(-c4ccccc4)cc3)cccc12` [Example 261, 4-[7-(1,1′-biphenyl-4-yl)-1-cyclopentyl-1H-indazol-3-yl]-3-methyl-phenol], in assay [2], the IC50 was determined as 98 nM. In addition, in assay [2] (setting [3]), the Emax came to 42%.

Turning to `Cc1cc(O)ccc1-c1nn(C2CCCC2)c2c(-c3ccccc3Cl)cccc12` [Example 262, 4-[7-(2-chlorophenyl)-1-cyclopentyl-1H-indazol-3-yl]-3-methyl-phenol], the 50% inhibitory concentration (IC50) in assay [2] is 8 nM. For the same compound, the Emax in assay [2] (setting [3]) was 75%.
